Molecules are shown by their SMILES. Like-named read-outs stand apart in the source and are kept apart here.

For data set [1], the system named is mouse peritoneal macrophage. The data set is described as follows: In vitro tests on inhibition of foaming of macrophage with mouse peritoneal macrophage (cholesteryl ester formation). The format is cell-based, mouse (female ICR). Particulars: 16 hours at 37° C., read-out: CE (%) (cholesteryl ester-forming rate, ratio to the control). The procedure: (1) In vitro tests on inhibition of foaming of macrophage with mouse peritoneal macrophage:
The necks of 15-week old female ICR mice (Japan SLC) were cut off. After blood-letting, Hanks buffer solution (Nissui Seiyaku Co., Ltd.) was injected into the abdominal cavity of each mouse. The abdomen was massaged and then the buffer solution was rapidly recovered, centrifuged at 1000 rotations for 5 minutes to collect the peritoneal macrophages. The peritoneal macrophases thus collected were then suspended in GIT medium (Wako Pure Chemical Industries, Ltd.), and the suspension was spread on a 24-hole microplate. After the cultivation at 37° C. in 5% CO2 for 2 hours, the medium was replaced with a Dulbecoo Modified Eagle's MEM medium (Nissui Seiyaku Co., Ltd.). After the cultivation at 37° C. in 5% CO2 for additional 16 hours, the following substances were added in the following order:
(1) subject: dissolved in DMSO (Wako Pure Chemical Industries, Ltd.)
PC: phosphatidyl choline (a product of Funakoshi)
PS: phosphatidyl serine (ditto)
DCP: dicetyl phosphate (ditto)
CHOL.: cholesterol (Sigma).
After further cultivation at 37° C. in 5% CO2 for 16 hours, the lipid fraction was extracted with chloroform and methanol. The lipid fraction thus extracted was dissolved in isopropyl alcohol, and the formed cholesteryl ester (CE) was determined by an enzymatic coloring method. The cholesteryl ester-forming rate of each compound was calculated in terms of the ratio thereof to the control. The cytotoxicity was examined by microscopic observation of the shape of the cell.
The pharmacological effects of the compounds given in Table 2 were evaluated in the same manner as that of Example 3.

The test system of data set [2] is mouse peritoneal macrophage. To be noted: dose 5 μM, microscopic observation.
The next data set has as its system total blood cholesterol. The data set is described as follows: Effect of reducing blood lipid of rabbit having high-cholesterol feed. The format is in vivo, rabbit (male New Zealand white). Particulars: 30 mg/kg/day mixed with high-cholesterol food, 14 days; based on the control; group of three rabbits. The procedure: (2) Effect of reducing blood lipid of rabit having high-cholesterol feed:
A high-cholesterol food (100 g/day/rabbit: ORC-4 of Oriental Yeast Co., Ltd. +0.5% cholesterol +0.5% olive oil) was given to each of male New Zealand white rabbits weighing about 2 kg for seven days to make them suffer from hypercholesterolemia.
In the next stage, the high-cholesterol food was still given to the rabbits and, in addition, 30 mg/kg/day/rabbit of the test compound (2) was continuously given in the form of a mixture thereof with the food to a group of three rabbits (test group) for 14 days. On the other hand, only the same high-cholesterol food as above was given in the equal dose to another group of three rabbits (control group).
After the continuous feeding for 14 days followed by fasting for one day, a small amount of the blood was taken from the parotid vein to determine the total blood cholesterol (latripo TC: a product of latron Co. Ltd.).

Another data set in a line: Acute Toxicity Test. On the set-up: species or system mouse (8-week ddy). To be noted: mouse, in vivo; oral, 0.5% Tween 80 suspension, six 8-week ddy mice, observed for one month. An excerpt: The compound (2) was suspended in 0.5% Tween 80 solution.
The compound I-7 was suspended in 0.5% Tween 80 solution.

On to `c1ccc2[nH]c(SCCOCCSc3nc4ccccc4[nH]3)nc2c1` [Compound (1)], for which, in data set [1] (Table 1, ratio to control), the activity at 5 µM is 25%. In data set [2] (Table 1), the Cytotoxicity result is “none”.

Turning to `CCC(=O)n1c(SCCOCCSc2nc3ccccc3n2C(=O)CC)nc2ccccc21` [Compound (2)], the activity at 5 µM in data set [1] (Table 1, ratio to control) amounted to 7%. The “total blood cholesterol decreasing rate” value in the data set on total blood cholesterol worked out at 25%. The LD50 at 730 h in “Acute Toxicity Test” is at least 5000 mg/kg. The Cytotoxicity entry in data set [2] (Table 1) is “none”.

As to `CCCC(=O)n1c(SCCOCCSc2nc3ccccc3n2C(=O)CCC)nc2ccccc21` [Compound (3)], in data set [1] (Table 1, ratio to control), the activity at 5 µM was determined as 15%. Moreover, in data set [2] (Table 1), the Cytotoxicity entry was “none”.

For `CCCCCC(=O)n1c(SCCOCCSc2nc3ccccc3n2C(=O)CCCCC)nc2ccccc21` [Compound (5)], the activity at 5 µM in data set [1] (Table 1, ratio to control) worked out at 20%. The Cytotoxicity entry in data set [2] (Table 1) is “none”.

Consider `CCCCCCCC(=O)n1c(SCCOCCSc2nc3ccccc3n2C(=O)CCCCCCC)nc2ccccc21` [Compound (6)], for which the activity at 5 µM in data set [1] (Table 1, ratio to control) came to 26%. Further, the Cytotoxicity entry in data set [2] (Table 1) is on record as “none”.

Take `CCCCCCCCCCCCCC(=O)n1c(SCCOCCSc2nc3ccccc3n2C(=O)CCCCCCCCCCCCC)nc2ccccc21` [Compound (7)]: the activity at 5 µM in data set [1] (Table 1, ratio to control) is 74%. Further, the Cytotoxicity result in data set [2] (Table 1) is “none”.

Consider `CCCn1c(SCCOCCSc2nc3ccccc3n2CCC)nc2ccccc21` [Compound (8)], for which the activity at 5 µM in data set [1] (Table 1, ratio to control) turned out to be 16%. Also, in data set [2] (Table 1), the Cytotoxicity entry is recorded as “none”.

For `CCCCCCCCn1c(SCCOCCSc2nc3ccccc3n2CCCCCCCC)nc2ccccc21` [Compound (9)], in data set [1] (Table 1, ratio to control), the activity at 5 µM is 28%. Besides, in data set [2] (Table 1), the Cytotoxicity result is “none”.

As for `c1ccc(Cn2c(SCCOCCSc3nc4ccccc4n3Cc3ccccc3)nc3ccccc32)cc1` [Compound (10)], the activity at 5 µM in data set [1] (Table 1, ratio to control) came out at 76%. Further, the Cytotoxicity result in data set [2] (Table 1) is “none”.

For the compound `Cc1ccc2[nH]c(SCCOCCSc3nc4cc(C)ccc4[nH]3)nc2c1` [Compound (11)], in data set [1] (Table 1, ratio to control), the activity at 5 µM worked out at 38%. The Cytotoxicity entry in data set [2] (Table 1) is given as “none”.

With `Cc1cc2nc(SCCOCCSc3nc4cc(C)c(C)cc4[nH]3)[nH]c2cc1C` [Compound (13)], in data set [1] (Table 1, ratio to control), the activity at 5 µM was found to be 45%. The Cytotoxicity entry in data set [2] (Table 1) is given as “none”.

`Clc1ccc2[nH]c(SCCOCCSc3nc4cc(Cl)ccc4[nH]3)nc2c1` [Compound (14)]: the activity at 5 µM in data set [1] (Table 1, ratio to control) was 18%. In addition, the Cytotoxicity result in data set [2] (Table 1) was “none”.

As to `Clc1cc2nc(SCCOCCSc3nc4cc(Cl)c(Cl)cc4[nH]3)[nH]c2cc1Cl` [Compound (16)], the activity at 5 µM in data set [1] (Table 1, ratio to control) came out at 46%. The Cytotoxicity entry in data set [2] (Table 1) is recorded as “none”.

`CCC(=O)n1c(SCCOCCSc2nc3cc(Cl)c(Cl)cc3n2C(=O)CC)nc2cc(Cl)c(Cl)cc21` [Compound (17)]: the activity at 5 µM in data set [1] (Table 1, ratio to control) stood at 27%. The Cytotoxicity result in data set [2] (Table 1) is “none”.

Turning to `O=[N+]([O-])c1ccc2[nH]c(SCCOCCSc3nc4cc([N+](=O)[O-])ccc4[nH]3)nc2c1` [Compound (18)], the activity at 5 µM in data set [1] (Table 1, ratio to control) came out at 10%. Besides, the Cytotoxicity result in data set [2] (Table 1) is given as “none”.

In the case of `c1ccc2[nH]c(SCCOCCOCCSc3nc4ccccc4[nH]3)nc2c1` [Compound (19)], the activity at 5 µM in data set [1] (Table 1, ratio to control) was determined as 11%. Besides, in data set [2] (Table 1), the Cytotoxicity entry is reported as “none”.

Take `CCC(=O)n1c(SCCOCCOCCSc2nc3ccccc3n2C(=O)CC)nc2ccccc21` [Compound (20)]: in data set [1] (Table 1, ratio to control), the activity at 5 µM is 69%. The Cytotoxicity entry in data set [2] (Table 1) is reported as “none”.

For the compound `CCCn1c(SCCOCCOCCSc2nc3ccccc3n2CCC)nc2ccccc21` [Compound (21)], the activity at 5 µM in data set [1] (Table 1, ratio to control) came to 23%. In addition, the Cytotoxicity entry in data set [2] (Table 1) is “none”.

As to `c1ccc2[nH]c(SCCOCCOCCOCCSc3nc4ccccc4[nH]3)nc2c1` [Compound (22)], the activity at 5 µM in data set [1] (Table 1, ratio to control) worked out at 22%. The Cytotoxicity entry in data set [2] (Table 1) is recorded as “none”.

On to `c1ccc2[nH]c(SCCCCCSc3nc4ccccc4[nH]3)nc2c1` [Compound I-7, 1,5-bis(2-benzimidazoylthio)pentane], for which the LD50 at 730 h in “Acute Toxicity Test” was at least 5000 mg/kg.

On to `c1ccc2[nH]c(SCCCCCCSc3nc4ccccc4[nH]3)nc2c1` [IV-1, 1,6-bis(2-benzimidazoylthio)hexane], for which the activity at 5 µM in data set [1] (Table 2, ratio to control) turned out to be 28%. In addition, in data set [2] (Table 2), the Cytotoxicity result is listed as “none”.

In the case of `c1ccc2[nH]c(SCCCCCCCCSc3nc4ccccc4[nH]3)nc2c1` [IV-2, 1,8-bis(2-benzimidazoylthio)octane], in data set [1] (Table 2, ratio to control), the activity at 5 µM amounted to 28%. The Cytotoxicity entry in data set [2] (Table 2) was “none”.

For orientation: LD50 means the dose expected to kill half of the subjects tested. Read a high LD50 as a less toxic substance.

Source of the values: patent US5962493A, “2-mercaptobenzimidazole derivatives and antihyperlipemic agent or antiarteriosclerotic agent containing the same” (priority 1997, dated 1999).
